Measured values published in patent publication US20230091225A1, “Bifunctional chimeric heterocyclic compounds for targeted degradation of androgen receptors and use thereof” (HINOVA PHARMACEUTICALS INC., priority 2019, published 2023).
Where two headings read alike, the source gives them in different places.

How the values were obtained:
Format in all cases: cell-based
androgen receptor (AR) [1] = biological target: T1, androgen receptor (AR) (Homo sapiens, UniProt P10275); experiment: Degradation of androgen receptor (AR) protein in VCaP cells by ELISA; conditions: for inhibition at 0.1 µM: read-out: % degradation
T1 sequence (P10275 1-920): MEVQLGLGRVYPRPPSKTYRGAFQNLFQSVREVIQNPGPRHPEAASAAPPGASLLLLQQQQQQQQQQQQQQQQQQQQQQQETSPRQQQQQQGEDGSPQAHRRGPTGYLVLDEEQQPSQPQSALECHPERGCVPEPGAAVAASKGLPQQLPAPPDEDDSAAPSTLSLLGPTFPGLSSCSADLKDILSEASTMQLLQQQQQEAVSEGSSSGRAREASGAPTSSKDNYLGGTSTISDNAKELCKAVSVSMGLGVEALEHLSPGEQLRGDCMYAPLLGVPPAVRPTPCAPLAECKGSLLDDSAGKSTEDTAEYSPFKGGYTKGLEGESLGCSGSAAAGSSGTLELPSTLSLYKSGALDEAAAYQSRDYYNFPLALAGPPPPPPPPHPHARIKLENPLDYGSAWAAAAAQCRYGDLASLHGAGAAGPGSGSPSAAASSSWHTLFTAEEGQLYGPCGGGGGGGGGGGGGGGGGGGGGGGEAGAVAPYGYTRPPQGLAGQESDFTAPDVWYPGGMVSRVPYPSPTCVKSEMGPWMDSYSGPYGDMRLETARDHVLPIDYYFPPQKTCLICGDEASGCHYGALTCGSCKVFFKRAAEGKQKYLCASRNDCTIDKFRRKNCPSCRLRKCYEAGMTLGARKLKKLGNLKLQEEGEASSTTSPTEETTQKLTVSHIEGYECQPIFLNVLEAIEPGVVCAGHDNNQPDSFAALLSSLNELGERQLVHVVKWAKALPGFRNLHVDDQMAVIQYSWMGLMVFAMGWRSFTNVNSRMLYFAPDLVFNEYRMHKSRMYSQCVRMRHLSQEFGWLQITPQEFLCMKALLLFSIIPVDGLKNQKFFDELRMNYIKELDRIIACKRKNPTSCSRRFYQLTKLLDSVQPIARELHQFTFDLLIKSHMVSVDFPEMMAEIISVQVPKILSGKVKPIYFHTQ

LNCaP/AR cells = experiment: Inhibition of proliferation of LNCaP/AR prostate cancer cells (CCK-8)
androgen receptor (AR) [2] = biological target: T1, androgen receptor (AR); experiment: Degradation of androgen receptor (AR) protein in VCaP cells by Western blot; conditions: percentage of degraded AR at 100 nM, VCaP cells, 16 h
Method in brief: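 AR and β-actin levels were read by Western blot with ECL detection, loading 30 μg lysate protein per well. Before lysis, VCaP cells seeded at 5×10^5/well and grown overnight were exposed to compound for 16 h, two wells per concentration, keeping DMSO at 0.1%.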

[3] = percentage of degraded AR at 100 nM, VCaP cells, 16 h, ELISA
[4] = 144 h, proliferation of LNCap/AR cells, 6 days, CCK-8, read-out: IC50
[5] = proliferation of LNCap/AR cells, 6 days, CCK-8, read-out: IC50

Row | inhibition at 0.1 µM (androgen receptor (AR) [1]; [3]) [%] | IC50 (LNCaP/AR cells; [4]) [nM] | Compound | other results
1 | 25 to 49 | > 1000 | N#Cc1ccc(O[C@H]2CC[C@H](N3Cc4nc(N5CC[C@@H](CN6CCN(c7cc8c(cc7F)CN(C7CCC(=O)NC7=O)C8=O)CC6)C5)ccc4C3=O)CC2)cc1Cl (stereo partly shown) [Compound 54] | –
2 | 25 to 49 | 100 to 500 | N#Cc1ccc(O[C@H]2CC[C@H](N3Cc4nc(N5CC[C@@H](CN6CCN(c7cc8c(cc7F)C(=O)N(C7CCC(=O)NC7=O)C8)CC6)C5)ccc4C3=O)CC2)cc1Cl (stereo partly shown) [Compound 55] | –
3 | – | – | N#Cc1ccc(O[C@H]2CC[C@H](N3Cc4nc(N5CCC(CN6CCN(c7ccc8c(c7)C(=O)N(C7CCC(=O)NC7=O)C8=O)CC6)CC5)ccc4C3=O)CC2)cc1Cl (stereo partly shown) [Compound 57] | % degradation (androgen receptor (AR) [1]): D (key: A: >80%; B: 79%-50%; C: 49%-25%; D: <25%); IC50 (LNCaP/AR cells): > 1000 nM
4 | < 25 | > 1000 | N#Cc1ccc(O[C@H]2CC[C@H](N3Cc4nc(N5CCC(OC6CCN(c7ccc8c(c7)C(=O)N(C7CCC(=O)NC7=O)C8=O)CC6)CC5)ccc4C3=O)CC2)cc1Cl (stereo partly shown) [Compound 60, 2-chloro-4-(((1r,4r)-4-(2-(4-((1-(2-(2,6-dioxopiperidin-3-yl)-1,3-dioxoisoindolin-5-yl)piperidine-4-yl)oxy)piperidin-1-yl)-5-oxo-5H-pyrrolo[3,4-b]pyridin-6(7H)-yl)cyclohexyl)oxy)benzonitrile] | –
5 | 50 to 79 | 100 to 500 | CC1(C)[C@H](Oc2ccc(C#N)c(Cl)c2)C(C)(C)[C@H]1N1Cc2nc(N3CCC(CN4CCN(c5cc6c(cc5F)C(=O)N(C5CCC(=O)NC5=O)C6=O)CC4)CC3)ccc2C1=O (stereo partly shown) [Compound 198] | –
6 | – | – | CC(C#Cc1ccc2c(c1)CN(C1C(C)(C)C(Oc3ccc(C#N)c(Cl)c3)C1(C)C)C2=O)N1CCN(c2cc3c(cc2F)C(=O)N(C2CCC(=O)NC2=O)C3=O)CC1 (stereo not shown) [Compound 199, 2-chloro-4-((1r,3r)-3-(5-(4-(2,6-dioxopiperidin-3-yl)-6-fluoro-1,3-dioxoisoindolin-5-yl)piperazin-1-yl)but-1-yn-1-yl)-1-oxoisoindolin-2-yl)-2,4,4-tetramethylcyclobutoxy)benzonitrile] | % degradation (androgen receptor (AR) [1]; [3]): D (<25%); IC50 (LNCaP/AR cells; [5]): > 1000 nM
7 | < 25 | > 1000 | N#Cc1ccc(O[C@H]2CC[C@H](N3Cc4nc(N5CCC(CN6CCN(c7cc8c(cc7F)CN(C7CCC(=O)NC7=O)C8=O)CC6)CC5)ccc4C3=O)CC2)cc1Cl (stereo partly shown) [Compound 203] | –
8 | 50 to 79 | < 100 | N#Cc1ccc(O[C@H]2CC[C@H](N3Cc4nc(N5CCC(CN6CCN(c7cc8c(cc7F)C(=O)N(C7CCC(=O)NC7=O)C8)CC6)CC5)ccc4C3=O)CC2)cc1Cl (stereo partly shown) [Compound 204] | –
9 | – | < 100 | CC1(C)[C@H](Oc2ccc(C#N)c(Cl)c2)C(C)(C)[C@H]1N1Cc2nc(N3CCC(CN4CCN(c5cc6c(cc5F)CN(C5CCC(=O)NC5=O)C6=O)CC4)CC3)ccc2C1=O (stereo partly shown) [Compound 205] | inhibition at 0.1 µM (androgen receptor (AR) [2]): < 25%
10 | < 25 | > 1000 | N#Cc1ccc(O[C@H]2CC[C@H](N3Cc4nc(N5CCN(CC6CCN(c7cc8c(cc7F)C(=O)N(C7CCC(=O)NC7=O)C8=O)CC6)CC5)ccc4C3=O)CC2)cc1Cl (stereo partly shown) [Compound 210] | –
11 | – | – | CC1(C)C(Oc2ccc(C#N)c(Cl)c2)C(C)(C)C1N1Cc2nc(N3CCC(CN4CCN(c5cc6c(cc5F)CN([C@@H]5CCC(=O)NC5=O)C6=O)CC4)CC3)ccc2C1=O (stereo partly shown) [Compound 211] | IC50 (LNCaP/AR cells; [5]): 100 to 500 nM; % degradation (androgen receptor (AR) [2]): D (<25%)
12 | 25 to 49 | > 1000 | CC1(C)[C@H](NC(=O)c2ccc(N3CCC(CN4CCN(c5cc6c(cc5F)C(=O)N(C5CCC(=O)NC5=O)C6)CC4)CC3)nc2)C(C)(C)[C@H]1Oc1ccc(C#N)c(Cl)c1 (stereo partly shown) [Compound 213] | –
13 | – | < 100 | CC1(C)[C@H](NC(=O)c2ccc(N3CCC(CN4CCN(c5cc6c(cc5F)CN(C5CCC(=O)NC5=O)C6=O)CC4)CC3)nc2)C(C)(C)[C@H]1Oc1ccc(C#N)c(Cl)c1 (stereo partly shown) [Compound 214] | inhibition at 0.1 µM (androgen receptor (AR) [2]): 50 to 79%
14 | < 25 | > 1000 | [2H]C([2H])([2H])N(C(=O)c1ccc(N2CCC(CN3CCN(c4cc5c(cc4F)CN(C4CCC(=O)NC4=O)C5=O)CC3)CC2)nc1)[C@H]1C(C)(C)[C@H](Oc2ccc(C#N)c(Cl)c2)C1(C)C (stereo partly shown) [Compound 215, N-((1r,3r)-3-(3-chloro-4-cyanophenoxy)-2,2,4,4-tetramethylcyclobutyl)-6-(4-((4-(2-(2,6-dioxopiperidin-3-yl)-6-fluoro-3-oxoisoindolin-5-yl)piperazin-1-yl)methyl)piperidin-1-yl)-N-(methyl-d3)nicotinamide] | –
15 | > 80 | 100 to 500 | [2H]C([2H])([2H])N(C(=O)c1ccc(N2CCC(CN3CCN(c4cc5c(cc4F)C(=O)N(C4CCC(=O)NC4=O)C5)CC3)CC2)nc1)[C@H]1C(C)(C)[C@H](Oc2ccc(C#N)c(Cl)c2)C1(C)C (stereo partly shown) [Compound 216, N-((1r,3r)-3-(3-chloro-4-cyanophenoxy)-2,2,4,4-tetramethylcyclobutyl)-6-(4-((4-(2-(2,6-dioxopiperidin-3-yl)-6-fluoro-1-oxoisoindolin-5-yl)piperazin-1-yl)methyl)piperidin-1-yl)-N-(methyl-d3)nicotinamide] | –
16 | < 25 | > 1000 | N#Cc1ccc(O[C@H]2CC[C@H](N3Cc4nc(N5CCC(CN6CCN(c7cccc8c7C(=O)N(C7CCC(=O)NC7=O)C8=O)CC6)CC5)ccc4C3=O)CC2)cc1Cl (stereo partly shown) [Compound 217] | –
17 | – | > 1000 | N#Cc1ccc(OC2C[C@@H]3CN(C(=O)c4ccc(N5CCC(CN6CCN(c7ccc8c(c7)C(=O)N(C7CCC(=O)NC7=O)C8=O)CC6)CC5)nn4)C[C@@H]3C2)cc1Cl (stereo partly shown) [Compound 218] | inhibition at 0.1 µM (androgen receptor (AR) [2]): < 25%
18 | – | – | (2R,4R)-1-((S)-2-(2-((5-((2-((1r,3r)-3-(4-cyano-3-(trifluoromethyl) phenoxy)-2,2,4,4-tetramethylcyclobutyl)-1-oxoisoindolin-5-yl)amino)phenyl)oxy) acetylamino)-3,3-dimethylbutyryl)-4-hydroxy-N-((R)-1-(4-(4-methylthiazol-5-yl)phenyl)ethyl)pyrrole-2-formamide [Compound 16] | % degradation (androgen receptor (AR) [1]): C (key: A: >80%; B: 79%-50%; C: 49%-25%; D: <25%); IC50 (LNCaP/AR cells; [5]): < 100 nM
19 | – | – | (2R,4R)-1-((S)-2-(2-((6-(2-((1R,3R)-3-(3-chloro-4-cyanophenoxy)-2,2,4,4-tetramethylcyclobutyl)-3-oxoisoindolin-5-yl)hex-5-yn-1-yl)oxy)acetylamino)-3,3-dimethylbutyryl)-4-hydroxy-N-((S)-1-(4-(4-methylthiazol-5-yl)phenyl)ethyl) pyrrolidine-2-carboxamide [Compound 5] | % degradation (androgen receptor (AR) [1]; [3]): C (49%-25%); IC50 (LNCaP/AR cells; [5]): < 100 nM
20 | – | – | (2S,4R)-1-((S)-2-(2-(4-(3-(2((1s,3s)-3-(3-chloro-4-cyanophenoxy)-2,2,4,4-tetramethylcyclobutyl)-1-oxoisoindolin-5-yl)prop-2-yn-1-yl)piperidin-1-yl)acetylamino)-3,3-dimethylbutyryl)-4-hydroxy-N-((S)-1-(4-(4-methylthiazol-5-yl)phenyl)ethyl)pyrrolidine-2-carboxamide [Compound 39] | % degradation (androgen receptor (AR) [1]): C (key: A: >80%; B: 79%-50%; C: 49%-25%; D: <25%); IC50 (LNCaP/AR cells; [5]): < 100 nM
21 | – | – | (2S,4R)-1-((S)-2-(4-(4-((2-((1r,3r)-3-(3-chloro-4-cyanophenoxy)-2,2,4,4-tetramethylcyclobutyl)-1-oxoisoindolin-5-yl)ethynyl)-1H-pyrazol-1-yl)butylamino)-3,3-dimethylbutanol)-4-hydroxy-N-((S)-1-(4-methylthiazol-5-yl)phenyl)ethyl)pyrrolidine-2-carboxamide [Compound 35] | % degradation (androgen receptor (AR) [1]): B (key: A: >80%; B: 79%-50%; C: 49%-25%; D: <25%); IC50 (LNCaP/AR cells; [5]): < 100 nM

Row | Compound | inhibition at 0.1 µM (androgen receptor (AR) [1]; [3]) [%] | IC50 (LNCaP/AR cells; [4]) [nM] | other results
22 | N#Cc1ccc(O[C@H]2CC[C@H](N3Cc4nc(N5CCC(CN6CCN(c7cc8c(cc7F)C(=O)N(C7CCC(=O)NC7=O)C8=O)CC6)CC5)ccc4C3=O)CC2)cc1Cl (stereo partly shown) [Compound 200] | – | > 1000 | inhibition at 0.1 µM (androgen receptor (AR) [1]; VCaP, 16 h): 50 to 79%
23 | N#Cc1ccc(O[C@H]2CC[C@H](N3Cc4nc(N5CCC(CN6CCN(c7ccc8c(c7)C(=O)N(C7CCC(=O)NC7=O)C8=O)CC6)CC5)ccc4C3=O)CC2)cc1Cl (stereo partly shown) [Compound 201] | 50 to 79 | > 1000 | –
